Here are results for 1 compound from publication PMC6934184, “Selective DNA-PKcs inhibition extends the therapeutic index of localized radiotherapy and chemotherapy” (The Journal of Clinical Investigation, 2019).

This assay addresses T1, PAK7 (KIAA1264) (Homo sapiens, UniProt Q9P286).
T1 construct: purchased Thermo Fisher Scientific (Life Technologies) SelectScreen
Description: SelectScreen Z'LYTE. The assay is classed as biochemical. In short, it runs like this:
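NU5455 was profiled across the SelectScreen Broad panel of kinase activity and binding assays. Z'LYTE reactions such as CSF1R ran at apparent Km ATP, while the Adapta CAMK1 assay used ATP listed as 10. Values are given as percent.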

T1 sequence (Q9P286 whole entry): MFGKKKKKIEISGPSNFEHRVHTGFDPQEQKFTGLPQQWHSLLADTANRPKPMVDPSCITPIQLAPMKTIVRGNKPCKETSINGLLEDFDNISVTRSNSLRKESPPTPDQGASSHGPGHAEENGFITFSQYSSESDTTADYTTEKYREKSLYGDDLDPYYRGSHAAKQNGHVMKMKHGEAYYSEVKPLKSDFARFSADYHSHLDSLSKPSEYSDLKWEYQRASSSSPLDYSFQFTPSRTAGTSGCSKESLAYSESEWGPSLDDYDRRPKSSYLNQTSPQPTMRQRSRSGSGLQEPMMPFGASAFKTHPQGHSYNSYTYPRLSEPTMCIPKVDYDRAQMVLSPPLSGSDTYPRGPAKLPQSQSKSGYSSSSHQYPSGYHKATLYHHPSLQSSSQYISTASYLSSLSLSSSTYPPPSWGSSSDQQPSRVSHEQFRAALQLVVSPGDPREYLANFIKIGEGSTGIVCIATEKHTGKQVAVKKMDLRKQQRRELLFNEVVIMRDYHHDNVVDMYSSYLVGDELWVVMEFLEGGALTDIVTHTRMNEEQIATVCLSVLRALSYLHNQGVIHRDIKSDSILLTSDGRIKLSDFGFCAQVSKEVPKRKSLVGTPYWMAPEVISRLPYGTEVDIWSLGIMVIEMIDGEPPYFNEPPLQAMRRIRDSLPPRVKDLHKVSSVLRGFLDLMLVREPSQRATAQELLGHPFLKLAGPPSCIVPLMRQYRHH

In turn, `CN(C(=O)CN1CCOCC1)c1ccc2sc3c(-c4cccc5c(=O)cc(N6CC7CCC(C6)O7)oc45)cccc3c2c1` [NU5455] yielded an inhibition at 1 µM of 5.7%.

As usually defined, the inhibition is the relative decrease from the control value, in per cent. A lower inhibition goes with a response near the control.
